Assay results published in paper PMC6155332, “Antimalarials with Benzothiophene Moieties as Aminoquinoline Partners” (Molecules : A Journal of Synthetic Chemistry and Natural …, 2017).
Several values for one entry are separate records, joined by “and”; a condition that tells them apart may be missing. Identical values can stand only once.

Each compound was assayed on P. falciparum W2 (CQ resistant (CQR) strain) (assay: microbe, parasite or virus in culture). Conditions: IC50 W2 / IC50 D6.
Assay type: cell-based, Plasmodium falciparum

Point of comparison: `N#Cc1ccc(-c2ccc(-c3ccc(CNCCCCCCNc4ccnc5cc(Cl)ccc45)cc3)s2)cc1` [Compound 41], “RI W2/D6 (resistance index)” value 0.5. Against it:
- CC(CCCNCc1ccc(-c2csc3ccc(F)cc23)cc1)Nc1ccnc2ccccc12 (stereo not drawn) [Compound 26] — higher, 1.5
- N#Cc1ccc2c(-c3ccc(CNCCCCNc4ccnc5ccccc45)cc3)csc2c1 [Compound 31] — higher, 15.2
- N#Cc1ccc(-c2ccc(-c3ccc(CNCCCNc4ccnc5cc(Cl)ccc45)cc3)s2)cc1 [Compound 38] — lower, 0.2
- N#Cc1ccc(-c2ccc(-c3ccc(CNCCCCCCCCNc4ccnc5cc(Cl)ccc45)cc3)s2)cc1 [Compound 42] — lower, 0.2
- OC(c1cc(C(F)(F)F)nc2c(C(F)(F)F)cccc12)C1CCCCN1 (stereo not drawn) [MFQ, mefloquine, reference compound] — lower, 0.3
- N#Cc1ccc(-c2ccc(-c3ccc(CNCCCCNc4ccnc5cc(Cl)ccc45)cc3)s2)cc1 [Compound 39] — higher, 0.8
- Fc1ccc2scc(CNCCCCNc3ccnc4ccccc34)c2c1 [Compound 13] — higher, 12.6
- Fc1ccc2scc(-c3ccc(CNCCCCCCNc4ccnc5ccccc45)cc3)c2c1 [Compound 24] — higher, 4.6
- CC(CCCNCc1ccc(-c2csc3ccc(C#N)cc23)cc1)Nc1ccnc2ccccc12 (stereo not drawn) [Compound 29] — higher, 3.4
- CC(CCCN(C)Cc1ccc(-c2csc3ccc(F)cc23)cc1)Nc1ccnc2ccccc12 (stereo not drawn) [Compound 27] — higher, 4.3
- Fc1ccc2scc(-c3ccc(CNCCCNc4ccnc5ccccc45)cc3)c2c1 [Compound 23] — higher, 5.1

Same assay, conditions: Plasmodium falciparum, W2, read-out: In Vitro Antimalarial Activity (P. falciparum, IC50, nM) W2

Point of comparison: `N#Cc1ccc(-c2ccc(-c3ccc(CNCCCCCCNc4ccnc5cc(Cl)ccc45)cc3)s2)cc1` [Compound 41], IC50 13 nM. Against it:
- CC(CCCNCc1ccc(-c2csc3ccc(F)cc23)cc1)Nc1ccnc2ccccc12 (stereo not drawn) [Compound 26] — 4.2-fold higher, 55 nM
- N#Cc1ccc2c(-c3ccc(CNCCCCNc4ccnc5ccccc45)cc3)csc2c1 [Compound 31] — 15-fold higher, 197 nM
- N#Cc1ccc(-c2ccc(-c3ccc(CNCCCNc4ccnc5cc(Cl)ccc45)cc3)s2)cc1 [Compound 38] — 1.5-fold higher, 20 nM
- N#Cc1ccc(-c2ccc(-c3ccc(CNCCCCCCCCNc4ccnc5cc(Cl)ccc45)cc3)s2)cc1 [Compound 42] — within 1.5-fold, 12 nM
- OC(c1cc(C(F)(F)F)nc2c(C(F)(F)F)cccc12)C1CCCCN1 (stereo not drawn) [MFQ, mefloquine, reference compound] — 1.9-fold lower, 7 nM
- N#Cc1ccc(-c2ccc(-c3ccc(CNCCCCNc4ccnc5cc(Cl)ccc45)cc3)s2)cc1 [Compound 39] — 3.5-fold higher, 46 nM
- Fc1ccc2scc(CNCCCCNc3ccnc4ccccc34)c2c1 [Compound 13] — 15-fold higher, 201 nM
- Fc1ccc2scc(-c3ccc(CNCCCCCCNc4ccnc5ccccc45)cc3)c2c1 [Compound 24] — 21-fold higher, 277 nM
- CC(CCCNCc1ccc(-c2csc3ccc(C#N)cc23)cc1)Nc1ccnc2ccccc12 (stereo not drawn) [Compound 29] — 3.4-fold higher, 44 nM
- CC(CCCN(C)Cc1ccc(-c2csc3ccc(F)cc23)cc1)Nc1ccnc2ccccc12 (stereo not drawn) [Compound 27] — 9.7-fold higher, 126 nM
- Fc1ccc2scc(-c3ccc(CNCCCNc4ccnc5ccccc45)cc3)c2c1 [Compound 23] — 11-fold higher, 144 nM

What follows are compounds tested on P. berghei (ANKA) (assay: Modified Thompson test, P. berghei mouse efficacy). Conditions: 160 mg/kg/day p.o. days 3–5; day 24.
Assay type: in vivo, Plasmodium berghei
Method: In a separate host toxicity study, benzothiophene 25 was subjected to in vivo toxicity evaluation. […]
The P. berghei (ANKA) mouse efficacy tests were conducted using a modified version of the Thompson test. Groups of five mice were inoculated intraperitoneally with erythrocytes infected with P. berghei on day 0. Drugs were suspended in 0.5% hydroxyethylcellulose-0.1% Tween 80 and administered orally once a day beginning on day 3 post infection. […] Cure was defined as survival (with no parasitemia) until day 31 post-treatment. Parasitemia was determined by thin-blood Giemsa-stained smears prepared from mice tail blood of each animal on days 0, 3, 6, 10, 13, 17, 20, 24, 27, and 31 (postinfection). The slides were examined under a light microscope.

`N#Cc1ccc(-c2ccc(-c3ccc(CNCCCCCCCCNc4ccnc5cc(Cl)ccc45)cc3)s2)cc1` [Compound 42] was tested, and the “Parasitemia D24” value was 75%.

Same assay, conditions: infected mice, 160 mg/kg/day p.o., days 3–5 postinfection

`N#Cc1ccc(-c2ccc(-c3ccc(CNCCCCCCCCNc4ccnc5cc(Cl)ccc45)cc3)s2)cc1` [Compound 42] was tested, and the “Mean Survival Time (MST, Days)” value was 18.6 days.

With `N#Cc1ccc(-c2ccc(-c3ccc(CNCCCCCCCCNc4ccnc5cc(Cl)ccc45)cc3)s2)cc1` [Compound 42] the “Mice Alive on Day 31” value was 0/5.

Same assay, conditions: infected mice, 160 mg/kg/day p.o., days 3–5 postinfection; 160 mg/kg/day

`N#Cc1ccc(-c2ccc(-c3ccc(CNCCCCCCCCNc4ccnc5cc(Cl)ccc45)cc3)s2)cc1` [Compound 42] was tested, and the “Mice Dead/Day Died” value was 1/9 and 1/13 and 1/20 and 1/23 and 1/28.

These compounds were tested on P. falciparum D6 (CQ susceptible (CQS) strain) (assay: Malaria SYBR Green Fluorescence Assay, D6 strain). Conditions: Plasmodium falciparum; CQ susceptible African D6 clone; read-out: In Vitro Antimalarial Activity (P. falciparum, IC50, nM) D6.
Assay type: cell-based

Point of comparison: `N#Cc1ccc(-c2ccc(-c3ccc(CNCCCCCCNc4ccnc5cc(Cl)ccc45)cc3)s2)cc1` [Compound 41], IC50 27 nM. Against it:
- CC(CCCNCc1ccc(-c2csc3ccc(F)cc23)cc1)Nc1ccnc2ccccc12 (stereo not drawn) [Compound 26] — within 1.5-fold, 36 nM
- N#Cc1ccc2c(-c3ccc(CNCCCCNc4ccnc5ccccc45)cc3)csc2c1 [Compound 31] — 2.1-fold lower, 13 nM
- N#Cc1ccc(-c2ccc(-c3ccc(CNCCCNc4ccnc5cc(Cl)ccc45)cc3)s2)cc1 [Compound 38] — 3.1-fold higher, 84 nM
- N#Cc1ccc(-c2ccc(-c3ccc(CNCCCCCCCCNc4ccnc5cc(Cl)ccc45)cc3)s2)cc1 [Compound 42] — 2-fold higher, 55 nM
- OC(c1cc(C(F)(F)F)nc2c(C(F)(F)F)cccc12)C1CCCCN1 (stereo not drawn) [MFQ, mefloquine, reference compound] — within 1.5-fold, 23 nM
- N#Cc1ccc(-c2ccc(-c3ccc(CNCCCCNc4ccnc5cc(Cl)ccc45)cc3)s2)cc1 [Compound 39] — 2.2-fold higher, 59 nM
- Fc1ccc2scc(CNCCCCNc3ccnc4ccccc34)c2c1 [Compound 13] — 1.7-fold lower, 16 nM
- Fc1ccc2scc(-c3ccc(CNCCCCCCNc4ccnc5ccccc45)cc3)c2c1 [Compound 24] — 2.2-fold higher, 60 nM
- CC(CCCNCc1ccc(-c2csc3ccc(C#N)cc23)cc1)Nc1ccnc2ccccc12 (stereo not drawn) [Compound 29] — 2.1-fold lower, 13 nM
- CC(CCCN(C)Cc1ccc(-c2csc3ccc(F)cc23)cc1)Nc1ccnc2ccccc12 (stereo not drawn) [Compound 27] — within 1.5-fold, 29 nM
- Fc1ccc2scc(-c3ccc(CNCCCNc4ccnc5ccccc45)cc3)c2c1 [Compound 23] — within 1.5-fold, 28 nM

The compounds below were run on P. falciparum TM91C235 (Thailand, multidrug-resistant (MDR) strain) (assay: Malaria SYBR Green Fluorescence Assay, TM91C235 strain). Conditions: Plasmodium falciparum, read-out: In Vitro Antimalarial Activity (P. falciparum, IC50, nM) C235.
Assay type: cell-based

Point of comparison: `N#Cc1ccc(-c2ccc(-c3ccc(CNCCCNc4ccnc5cc(Cl)ccc45)cc3)s2)cc1` [Compound 38], IC50 43 nM. Against it:
- CC(CCCNCc1ccc(-c2csc3ccc(F)cc23)cc1)Nc1ccnc2ccccc12 (stereo not drawn) [Compound 26] — within 1.5-fold, 45 nM
- N#Cc1ccc2c(-c3ccc(CNCCCCNc4ccnc5ccccc45)cc3)csc2c1 [Compound 31] — 2.2-fold higher, 93 nM
- N#Cc1ccc(-c2ccc(-c3ccc(CNCCCCCCCCNc4ccnc5cc(Cl)ccc45)cc3)s2)cc1 [Compound 42] — within 1.5-fold, 30 nM
- OC(c1cc(C(F)(F)F)nc2c(C(F)(F)F)cccc12)C1CCCCN1 (stereo not drawn) [MFQ, mefloquine, reference compound] — within 1.5-fold, 55 nM
- N#Cc1ccc(-c2ccc(-c3ccc(CNCCCCNc4ccnc5cc(Cl)ccc45)cc3)s2)cc1 [Compound 39] — within 1.5-fold, 52 nM
- Fc1ccc2scc(CNCCCCNc3ccnc4ccccc34)c2c1 [Compound 13] — 4.1-fold higher, 177 nM
- Fc1ccc2scc(-c3ccc(CNCCCCCCNc4ccnc5ccccc45)cc3)c2c1 [Compound 24] — 5.6-fold higher, 242 nM
- CC(CCCNCc1ccc(-c2csc3ccc(C#N)cc23)cc1)Nc1ccnc2ccccc12 (stereo not drawn) [Compound 29] — within 1.5-fold, 46 nM
- CC(CCCN(C)Cc1ccc(-c2csc3ccc(F)cc23)cc1)Nc1ccnc2ccccc12 (stereo not drawn) [Compound 27] — 2.9-fold higher, 126 nM
- N#Cc1ccc(-c2ccc(-c3ccc(CNCCCCCCNc4ccnc5cc(Cl)ccc45)cc3)s2)cc1 [Compound 41] — 2.1-fold lower, 20 nM
- Fc1ccc2scc(-c3ccc(CNCCCNc4ccnc5ccccc45)cc3)c2c1 [Compound 23] — 2.6-fold higher, 111 nM

The compounds below were run on healthy mice (assay: Host toxicity study in healthy mice). Conditions: groups of 5 healthy mice, 160 mg/kg/day × 3 days.
Assay type: in vivo
Method: In a separate host toxicity study, groups of five healthy mice were administered 160 mg/kg/day × 3 days of the investigational compounds and individually monitored for behavior and appearance two times a day for 31 days. No toxicity was defined as survival past day 31 with no overt clinical manifestations of toxicity (changes in behavior and appearance).

For `N#Cc1ccc(-c2ccc(-c3ccc(CNCCCCCCCCNc4ccnc5cc(Cl)ccc45)cc3)s2)cc1` [Compound 42], the “Mice survived in host toxicity study” value was 5.

Same assay, conditions: healthy mice, 160 mg/kg/day × 3 days, orally

For `N#Cc1ccc(-c2ccc(-c3ccc(CNCCCCCCCCNc4ccnc5cc(Cl)ccc45)cc3)s2)cc1` [Compound 42], the “Host toxicity (toxic / non-toxic)” value was “non-toxic”.

The compounds below were run on HepG2 (hepatocellular carcinoma) cell line (assay: Compound toxicity in HepG2 cell line). Conditions: Homo sapiens, HepG2; hepatocellular carcinoma cells.
Assay type: cell-based, human
Method: To investigate possible toxicity issues, the synthesized compounds were evaluated in vitro against a human hepatoma cell line (HepG2).
Synthesized aminoquinolines were screened in vitro against P. falciparum strains: CQ and MFQ susceptible strain D6 (clone of Sierra Leone/UNC isolate), CQ resistant but MFQ susceptible strain W2 (clone of Indochina isolate), and CQ and MFQ resistant strain TM91C235 (clone of South East Asian isolate) using the Malaria SYBR Green Fluorescence Assay. Full method details are given in Supplementary Materials I. Assessment of compound toxicity in a HepG2 (hepatocellular carcinoma) cell line followed the protocol described in Ref. [40].

Point of comparison: `N#Cc1ccc2c(-c3ccc(CNCCCCNc4ccnc5ccccc45)cc3)csc2c1` [Compound 31], IC50 3580 nM. Against it:
- CC(CCCNCc1ccc(-c2csc3ccc(F)cc23)cc1)Nc1ccnc2ccccc12 (stereo not drawn) [Compound 26] — 1.5-fold lower, 2340 nM
- N#Cc1ccc(-c2ccc(-c3ccc(CNCCCNc4ccnc5cc(Cl)ccc45)cc3)s2)cc1 [Compound 38] — within 1.5-fold, 2560 nM
- N#Cc1ccc(-c2ccc(-c3ccc(CNCCCCCCCCNc4ccnc5cc(Cl)ccc45)cc3)s2)cc1 [Compound 42] — 1.7-fold lower, 2090 nM
- N#Cc1ccc(-c2ccc(-c3ccc(CNCCCCNc4ccnc5cc(Cl)ccc45)cc3)s2)cc1 [Compound 39] — higher, > 5790 nM
- Fc1ccc2scc(CNCCCCNc3ccnc4ccccc34)c2c1 [Compound 13] — within 1.5-fold, 2730 nM
- Fc1ccc2scc(-c3ccc(CNCCCCCCNc4ccnc5ccccc45)cc3)c2c1 [Compound 24] — 1.6-fold lower, 2230 nM
- CC(CCCNCc1ccc(-c2csc3ccc(C#N)cc23)cc1)Nc1ccnc2ccccc12 (stereo not drawn) [Compound 29] — within 1.5-fold, 2410 nM
- CC(CCCN(C)Cc1ccc(-c2csc3ccc(F)cc23)cc1)Nc1ccnc2ccccc12 (stereo not drawn) [Compound 27] — within 1.5-fold, 5000 nM
- N#Cc1ccc(-c2ccc(-c3ccc(CNCCCCCCNc4ccnc5cc(Cl)ccc45)cc3)s2)cc1 [Compound 41] — within 1.5-fold, 2420 nM
- Fc1ccc2scc(-c3ccc(CNCCCNc4ccnc5ccccc45)cc3)c2c1 [Compound 23] — within 1.5-fold, 3820 nM

Same assay, conditions: IC50 HepG2 / IC50 D6

Point of comparison: `Fc1ccc2scc(-c3ccc(CNCCCNc4ccnc5ccccc45)cc3)c2c1` [Compound 23], “SI HepG2/D6 (selectivity index)” value 136. Against it:
- CC(CCCNCc1ccc(-c2csc3ccc(F)cc23)cc1)Nc1ccnc2ccccc12 (stereo not drawn) [Compound 26] — lower, 65
- N#Cc1ccc2c(-c3ccc(CNCCCCNc4ccnc5ccccc45)cc3)csc2c1 [Compound 31] — higher, 276
- N#Cc1ccc(-c2ccc(-c3ccc(CNCCCNc4ccnc5cc(Cl)ccc45)cc3)s2)cc1 [Compound 38] — lower, 30
- N#Cc1ccc(-c2ccc(-c3ccc(CNCCCCCCCCNc4ccnc5cc(Cl)ccc45)cc3)s2)cc1 [Compound 42] — lower, 38
- Fc1ccc2scc(CNCCCCNc3ccnc4ccccc34)c2c1 [Compound 13] — higher, 172
- Fc1ccc2scc(-c3ccc(CNCCCCCCNc4ccnc5ccccc45)cc3)c2c1 [Compound 24] — lower, 37
- CC(CCCNCc1ccc(-c2csc3ccc(C#N)cc23)cc1)Nc1ccnc2ccccc12 (stereo not drawn) [Compound 29] — higher, 192
- CC(CCCN(C)Cc1ccc(-c2csc3ccc(F)cc23)cc1)Nc1ccnc2ccccc12 (stereo not drawn) [Compound 27] — higher, 173
- N#Cc1ccc(-c2ccc(-c3ccc(CNCCCCCCNc4ccnc5cc(Cl)ccc45)cc3)s2)cc1 [Compound 41] — lower, 89
